Data published in ChEMBL document CHEMBL1201862, “PubChem BioAssay data set” (2004).
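Interpolation was linear, between the two tested concentrations surrounding the appropriate level; five concentrations were tested over 48 hours in 96-well plates. GI50 is the concentration that inhibits growth by half.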 The source made the active and inactive calls. Cut-off read from the data, not from the text of the source: active = GI50 up to about 1.1 µM and inactive = higher.

How the values were obtained:
Assay in all cases: NCI-60 cell line screen, 48 h
SF-539 = tested on: SF-539
RPMI-8226 = tested on: RPMI-8226
SR = tested on: SR
SK-MEL-2 = tested on: SK-MEL-2
IGROV-1 = tested on: IGROV-1
BT-549 = tested on: BT-549
HT-29 = tested on: HT-29
SF-268 = tested on: SF-268
COLO 205 = tested on: COLO 205
LOX IMVI = tested on: LOX IMVI
OVCAR-8 = tested on: OVCAR-8
SNB-75 = tested on: SNB-75
TK-10 = tested on: TK-10
SK-MEL-28 = tested on: SK-MEL-28
SK-MEL-5 = tested on: SK-MEL-5
MDA-MB-231 = tested on: MDA-MB-231
A498 = tested on: A498
KM12 = tested on: KM12
NCI-H23 = tested on: NCI-H23

Measured: GI50

COC(=O)C1Cc2c(C)cccc2C1=O (stereo not given)
inactive: SF-539 > 100 µM | RPMI-8226 > 100 µM | SR 50.8 µM | SK-MEL-2 > 100 µM | IGROV-1 > 100 µM | BT-549 > 100 µM | HT-29 > 100 µM | SF-268 > 100 µM | COLO 205 > 100 µM | LOX IMVI 88.9 µM | OVCAR-8 > 100 µM | SNB-75 > 100 µM | TK-10 > 100 µM | SK-MEL-28 > 100 µM | SK-MEL-5 > 100 µM | MDA-MB-231 > 100 µM | A498 > 100 µM | KM12 > 100 µM | NCI-H23 > 100 µM

O=c1ssc(Cl)c1Cl
inactive: SF-539 > 10 µM | RPMI-8226 5.19 µM | SR > 10 µM | SK-MEL-2 > 10 µM | IGROV-1 > 10 µM | BT-549 > 10 µM | HT-29 > 10 µM | SF-268 > 10 µM | COLO 205 2.11 µM | LOX IMVI > 10 µM | OVCAR-8 > 10 µM | SNB-75 > 10 µM | TK-10 > 10 µM | SK-MEL-28 > 10 µM | SK-MEL-5 > 10 µM | MDA-MB-231 > 10 µM | A498 > 10 µM | KM12 > 10 µM | NCI-H23 > 10 µM

CCOC(=O)C(O)(C(=O)OCC)c1cc(C(C)(C)C)c(O)c(C(C)(C)C)c1
inactive: SF-539 28.4 µM | RPMI-8226 26.1 µM | SR 33.6 µM | SK-MEL-2 27.7 µM | IGROV-1 45 µM | BT-549 39.2 µM | HT-29 28.1 µM | SF-268 40.7 µM | COLO 205 36.1 µM | LOX IMVI 37.2 µM | OVCAR-8 15.5 µM | SNB-75 27.4 µM | TK-10 34.5 µM | SK-MEL-28 31.8 µM | SK-MEL-5 17.8 µM | MDA-MB-231 53 µM | A498 50.8 µM | KM12 34.8 µM | NCI-H23 43.6 µM

COc1cccc(CCNc2c(C#N)c3n(c4ccccc4[n+]3C)c3ncccc23)c1
inactive: SF-539 1.58 µM | RPMI-8226 2.71 µM | SR > 100 µM | SK-MEL-2 21.4 µM | BT-549 23.3 µM | HT-29 1.41 µM | SF-268 16.4 µM | COLO 205 4.93 µM | LOX IMVI 1.74 µM | OVCAR-8 1.7 µM | SNB-75 5.96 µM | TK-10 21.2 µM | SK-MEL-28 20.2 µM | SK-MEL-5 14.6 µM | MDA-MB-231 4.52 µM | A498 20.9 µM | KM12 2 µM | NCI-H23 20.3 µM

Nc1ncnc2c1ncn2[C@H]1CC[C@@H](NO)C1
inactive: SF-539 > 100 µM | RPMI-8226 > 100 µM | SR > 100 µM | SK-MEL-2 > 100 µM | IGROV-1 > 100 µM | BT-549 > 100 µM | SF-268 > 100 µM | COLO 205 > 100 µM | LOX IMVI > 100 µM | OVCAR-8 > 100 µM | SNB-75 > 100 µM | TK-10 > 100 µM | SK-MEL-28 > 100 µM | SK-MEL-5 > 100 µM | MDA-MB-231 > 100 µM | A498 > 100 µM | KM12 > 100 µM | NCI-H23 > 100 µM

O=c1[nH]c(Br)nc2[nH]nnc12
inactive: SF-539 16.7 µM | RPMI-8226 17.9 µM | SR 42.2 µM | SK-MEL-2 8.24 µM | IGROV-1 > 100 µM | BT-549 18.1 µM | HT-29 > 100 µM | SF-268 11 µM | COLO 205 > 100 µM | LOX IMVI 6.89 µM | OVCAR-8 8.79 µM | SNB-75 23.1 µM | TK-10 54.6 µM | SK-MEL-5 68.9 µM | MDA-MB-231 34.7 µM | A498 > 100 µM | KM12 > 100 µM | NCI-H23 > 100 µM

CC1=C2C(=O)O[C@@H](c3ccoc3)[C@]2(C)CCC1=O [FRAXINELLONONE]
inactive: SF-539 > 100 µM | RPMI-8226 > 100 µM | SR > 100 µM | SK-MEL-2 > 100 µM | IGROV-1 > 100 µM | BT-549 > 100 µM | COLO 205 > 100 µM | LOX IMVI > 100 µM | OVCAR-8 > 100 µM | SNB-75 > 100 µM | SK-MEL-28 > 100 µM | SK-MEL-5 > 100 µM | MDA-MB-231 > 100 µM | A498 > 100 µM | KM12 > 100 µM | NCI-H23 > 100 µM

Cc1nc2c(sc3nc4ccccc4n32)c(=O)[nH]1
inactive: SF-539 > 100 µM | RPMI-8226 > 100 µM | SR > 100 µM | SK-MEL-2 > 100 µM | IGROV-1 > 100 µM | BT-549 > 100 µM | SF-268 > 100 µM | COLO 205 > 100 µM | LOX IMVI > 100 µM | OVCAR-8 42.5 µM | SNB-75 > 100 µM | TK-10 > 100 µM | SK-MEL-28 > 100 µM | SK-MEL-5 > 100 µM | MDA-MB-231 > 100 µM | A498 > 100 µM | KM12 > 100 µM | NCI-H23 > 100 µM
